Source: PubChem BioAssay AID1626 (SRMLSC, 2009)

Tested on: M. tuberculosis H37Rv growth inhibition
Assay: M. tuberculosis H37Rv growth inhibitors, H37Rv strain (AID 1626)
Conditions: for IC90: measured here: IC90 against H37Rv; for CC50: measured here: Vero cell cytotoxicity

SMILES	IC50 [µM]	IC90 [µM]	CC50 [µM]
O=C(Nc1nccs1)c1cc2c(s1)CCCCC2	5.64	25	> 40
COc1ccc(CNc2ncnc3cc(Cl)ccc23)cc1	58.5	> 100	–
CC(=O)n1cc(N(C(=O)CCl)c2ccccc2)c2ccccc21	3.1	7.33	0.792
COc1ccc(C2CC(=O)C3=C(C2)NC(C)=C(C#N)C3c2ccc(N(C)C)cc2)cc1 (stereo not drawn)	12.5	21.9	–
Cc1c2ccncc2c(C)c2c1[nH]c1ccccc12	0.465	0.667	0.793
CCOC(=O)c1ccc(NC(=O)CCc2nc(-c3ccccc3)no2)cc1	2.32	> 100	> 40
CCSCc1nnc(SCC(=O)Nc2cccc(SC)c2)n1C	43.5	> 100	–
Cc1cc(C)n(C(=O)c2ccc([N+](=O)[O-])cc2[N+](=O)[O-])n1	7.05	12.6	–
CCOC(=O)c1ccc(N/C=C/C(=O)C(C)(C)C)cc1	4.61	> 100	–
Cc1cccc(NC(=O)c2ccc([N+](=O)[O-])o2)c1C	12.2	23.9	11.5
CC(C)(C)c1ccc(OCCCC(=O)NC2=NCCS2)cc1	11.8	> 100	> 40
O=C1C=C(Nc2ccccc2)c2ccccc2C1=O	12.3	21.2	13.7
Cc1ccc(Cl)c(OC(=O)c2ccc(N3CCOCC3)c([N+](=O)[O-])c2)c1	6.6	> 100	–
O=C(Nc1nnc(-c2ccc3c(c2)OCCO3)o1)c1ccc(Cc2ccccc2)cc1	1.7	> 100	38.1
Cn1c(-c2ccc3c(c2)OCO3)cnc1NCc1cccc(Cl)c1	11.4	13.1	> 40
COc1ccc(N)c2c1C(=O)c1ccccc1C2=O	17.5	> 100	> 40
Cc1coc2c1C(=O)C(=O)c1c-2ccc2c1CCCC2(C)C	3.23	4.85	–
CCOc1ccccc1/C=C/C(=O)c1ccc(Cl)cc1	24.3	34.2	> 40
COC(=O)CSc1ccc(-c2nc3ccc(C)cc3[nH]2)cn1	1.95	3.39	–
CCn1ccnc1CN1CCCC(C(=O)c2ccc3cc(OC)ccc3c2)C1 (stereo not drawn)	10.9	25.5	> 40
COc1ccc(CN2CCN(CC(O)Cn3c4ccccc4c4ccccc43)CC2)cc1 (stereo not drawn)	5.34	8.3	15

SMILES	IC50 [µM]	IC90 [µM]	CC50 [µM]
COc1ccc(C(=O)Oc2cccc3cccnc23)cc1[N+](=O)[O-]	4.12	4.93	39
Cc1ccccc1-n1c(O)c(C=Nc2ccc3c(c2)OCO3)c(=O)[nH]c1=O	–	> 100	–
O=C(CCl)Oc1ccc2occ(C(=O)c3cccs3)c2c1	–	> 100	–
c1ccc(N2CCN(c3nc(NCc4ccco4)c4ccccc4n3)CC2)cc1	9.66	14.4	> 40
Cc1ccc(NC(=O)c2ccc([N+](=O)[O-])o2)cc1C	< 0.195	8.63	> 40
Brc1ccc(CSc2ncn[nH]2)cc1	46.2	> 100	> 40
COc1cc(OC)c2c(-c3ccccc3)cc(=O)oc2c1C(CCN1CCCC(C)C1)c1ccc(N(C)C)cc1 (stereo not drawn)	4.18	5.41	17.1
CCCCCCCCCn1c2c(c(=N)c3c1CCC3)CCCC2	4.41	5.68	7.25
Cc1cc(N2C3CCC2CC(O)(c2ccc(F)cc2)C3)nc(-c2ccccc2)n1 (stereo not drawn)	31.6	> 100	> 40
O=C(COc1ccc2c(C(F)(F)F)cc(=O)oc2c1)NCc1cccs1	14.8	> 100	–
COc1ccc(/C=C2/Sc3ccc(C(=O)N4CCc5ccccc5C4)cc3NC2=O)cc1	20	> 100	> 40
CCOC(=O)Cc1ccc(NC(=O)c2ccc(C(C)(C)C)cc2)cc1	35.6	> 100	> 40
CC(C)(C)c1ccc(C(=O)CC(=O)c2cc(Cl)ccc2O)cc1	2.67	3.14	12.4
N#Cc1ccc(/C=C/C(=O)c2ccc3c(c2)OCO3)cc1	–	> 100	–
COc1ccc(S(=O)(=O)Oc2ccc3c(c2)O/C(=C\c2cccnc2)C3=O)cc1	2.34	19.4	–
CCn1cc(CNC(=O)c2cc([N+](=O)[O-])c(C)c([N+](=O)[O-])c2)cn1	0.547	0.874	–
O=C(Nc1ccc2oc(-c3cccnc3)nc2c1)c1ccc([N+](=O)[O-])o1	< 0.195	> 100	1.32
CCCOC(=O)c1ccc(NC(=O)C(=O)NCC2CCCO2)cc1 (stereo not drawn)	38.7	> 100	–
COc1ccc(N=C/C=C2/C=C(c3ccccc3)OC(C)(C)O2)cc1	63.4	> 100	–
O=[N+]([O-])c1ccc(/C=N/n2c(CO)nc3ccccc32)s1	0.523	1.1	> 40
O=C(c1cc2nc(-c3ccc(F)cc3)cc(C(F)(F)F)n2n1)N1CCCCC1c1cccnc1 (stereo not drawn)	9.18	14	> 40

SMILES	IC50 [µM]	IC90 [µM]	CC50 [µM]
COc1ccc(OCCCC(=O)Nc2cccc(SC)c2)cc1	–	> 100	–
N#CC1=C(N)NC(SCC(=O)c2ccccc2)=C(C#N)C12CCCC2	7.73	> 100	–
CC(C)(C)C1CCc2c(sc3nc(SCC(N)=O)nc(N)c23)C1 (stereo not drawn)	24.8	> 100	> 40
[O-][n+]1onc2c3cc(-c4ccccc4)nnc3ccc21	< 0.195	0.443	–
Cc1cc(-c2c(C)[nH]n(-c3ccccc3)c2=O)n[nH]1	10.5	> 100	36.2
CNC(=O)C(=O)Nc1nc(C23CC4CC(CC(C4)C2)C3)cs1	62.7	> 100	–
COc1cc(NS(=O)(=O)c2ccc(N)cc2)ncn1	6.02	12.2	–
CCOC(=O)c1ccc(NC(=O)Cc2coc3cc4c(cc23)CCC4)cc1	6.36	> 100	> 40
COc1ccc(CNC(=O)c2c(C)nc3ccccn23)cc1	1.77	7.63	–
C#CCOCCOCCOCCNc1nc(N2CCN(C(=O)[C@H](Cc3ccc(O)cc3)n3cc([C@@H](N)CC(C)C)nn3)CC2)nc(N2CCN(C(=O)[C@H](Cc3cc4ccccc4[nH]3)n3cc([C@@H](N)CC(C)C)nn3)CC2)n1	11.7	16.7	–
COC(=O)CSc1nc(N)c(C#N)c(CC(C)C)c1C#N	2.91	57.5	–
CCc1ccccc1NC(=O)c1ccc([N+](=O)[O-])s1	–	> 100	> 40
Cc1c(CNC(=O)c2cnn3c2NC(c2ccc(Br)cc2)CC3C(F)(F)F)cnn1C (stereo not drawn)	4.09	6.49	–
CCc1c(C#N)c(N)nc(SCC(=O)OCc2ccccc2)c1C#N	–	> 100	–
CCCOC(=O)c1ccc(NC(=O)C2CCCO2)cc1 (stereo not drawn)	10.3	> 100	–
COc1cc(C)c(/C=C/C(C)=C/C=C/C(C)=C/C(=O)O)c(C)c1C	0.488	> 100	> 40
CC(C)(C)c1ccc(-c2cn(-c3ccc(Br)cc3)c3[n+]2CCCS3)cc1	2.62	4.97	13.3
C=CCNc1nnc(Sc2ncccc2[N+](=O)[O-])s1	3.96	6.01	–
CCOC(=O)Cn1c(-c2ccccc2)ccc(C#N)c1=O	4	> 100	–
COc1ccc2[nH]c(=O)c(CN(C(=O)NC3CCCCC3)C3CCCCC3)cc2c1	–	> 100	> 40
COc1cc(/C=C(/C#N)C(=O)Nc2ccc(C)cc2)ccc1Oc1nc(Cl)ncc1F	–	–	> 40

SMILES	IC50 [µM]	IC90 [µM]	CC50 [µM]
O=Cc1ccc2oc3nc4n(c(=O)c3c(=O)c2c1)CCCS4	0.441	1.24	–
CCCCCCCCCCNC(=O)C(=O)Nc1ccccn1	6.97	> 100	–
CC(=O)CC(=O)Nc1ccc2ccccc2c1	13.6	> 100	–
Cc1ccc(C2CC(C(F)(F)F)n3nc(C(=O)NCc4ccco4)cc3N2)cc1 (stereo not drawn)	0.92	1.79	–
COc1ccc(-n2c(C)nc3sc4c(c3c2=O)CCCC4)cc1	11.7	13.3	–
O=C(COC(=O)c1ccccc1Br)Nc1ccccc1F	–	> 100	–
CC1CC(C)(C)Nc2ccc(OC(=O)c3ccco3)cc21 (stereo not drawn)	15.9	22.2	> 40
COc1ccc(-c2oc3ccc(N4CCOCC4)cc3c2C#CC2(O)CCCCC2)cc1	–	–	> 40
O=C(OCc1ccc(F)cc1)c1ccc2ccccc2n1	8.16	14.4	–
O=C(Nc1nnc(SCc2ccc(F)cc2)s1)c1cnccn1	15.6	> 100	> 40
CCCCCCn1c(=O)c(C(=O)Nc2nc(CC(=O)OCC)cs2)c(O)c2ccccc21	< 0.195	< 0.195	4.53
OC(COCC(F)(F)C(F)(F)C(F)(F)C(F)F)Cn1c2ccc(Cl)cc2c2cc(Cl)ccc21 (stereo not drawn)	7.11	9.92	13.3
Cc1ccc(CNc2nc(-c3cccs3)nc3ccccc23)cc1	9.84	18.7	> 40
CCCOc1cccc(-c2nn(-c3ccccc3)cc2/C=C(\C#N)C(=O)NCCCn2ccnc2)c1	10.9	11.9	> 40
CC(C)[C@H](CO)N(Cc1cccc(F)c1)c1nc(Nc2cccc(Cl)c2)c2ncn(C(C)C)c2n1	7.31	14.1	> 40
Cc1ccc(C)c(SCC(=O)OC/C(O)=C(\C#N)c2nc3ccccc3[nH]2)c1	3.09	4.9	> 40
Nc1ncnc2c1ccn2[C@@H]1O[C@H](CO)[C@@H](O)[C@H]1O	2.44	3.87	0.131
Cc1nn(-c2ccccc2)nc1C(=O)c1c(C)[nH]n(-c2ccccc2)c1=O	8.35	13.6	37
CCOC(=O)c1cnc(-n2nc(C)cc2C)nc1NC1CCCC1	0.755	0.859	15.2
